Patent EP0539088B1, “Echinocandin b derivative” (MERCK & CO. INC., priority 1991, dated 1993)
Counter-ions that a name gives are not always drawn.

Experiments:
Candida albicans MY 1055 = assay: Minimum fungicidal concentration (MFC), microbroth dilution assay in YNBD; format: cell-based; settings: MY1055, 35°C 24 hours, then SDA 24 hours at 28°C
Text: (§1) The compounds of the present invention are active against many fungi and as previously indicated particularly against Candida species. The antifungal properties may be illustrated with the minimum fungicidal concentration (MFC) determination against certain Candida organisms in a microbroth dilution assay carried out in a Yeast Nitrogen Base (Difco) medium with 1 percent dextrose (YNBD).
(§2) In carrying out the assay, Compound I was solubilized in 10 percent dimethyl sulfoxide (DMSO) and diluted to 2560 µg/ml. The compound was then diluted to 256 µg/ml in YNBD. 0.15 mL of the suspension was dispensed to the top row of a 96-well plate (each well containing 0.15 ml of YNBD) resulting in a drug concentration of 128 µg/ml. Two-fold dilutions were then made from the top row to obtain final drug concentrations ranging from 128 to 0.06 µg/ml. […]
(§3) 96-well microplates were inoculated-using a MIC-2000 (Dynatech) which delivers […] per well yielding a final inoculum per well of 1.5-7.5 x 10^3 cells. […] The minimum inhibitory concentrations (MICs) were recorded as the lowest concentrations of drug showing no visible growth.
(§4) After recording the MIC, the plates were shaken to resuspend the cells. […] The inoculated trays were incubated 24 hours at 28°C and then read for minimum fungicidal concentration (MFC). […]

Candida albicans MY 1028 = assay: as above; format: cell-based; settings: MY1028, 35°C 24 hours, then SDA 24 hours at 28°C
Text: as §1, §2, §3, §4

[1] = test system: Candida albicans (MY 1055); assay: In vivo kidney CFU reduction in mice infected with Candida albicans; design: species or system female DBA/2 mice; settings: 0.4 mg/kg I.P. twice daily for four consecutive days; kidneys after seven days
Method: Growth from an overnight SDA culture of Candica albicans MY 1055 was suspended in sterile saline and the cell concentration determined by hemacytometer count and the cell suspension adjusted to 3.75 x 10^5 cells/ml. Then 0.2 milliliter of this suspension was administered I.V. in the tail vein of mice so that the final inoculum was 7.5 x 10^4 cells/mouse.
The assay then was carried out by administering aqueous solutions of Compound I at various concentrations intraperitoneally (I.P.), twice daily (b.i.d.) for four consecutive days to 18 to 20 gram female DBA/2 mice, which previously had been infected with Candida albicans (MY 1055) in the manner described above. Distilled water was administered I.P. to C. albicans challenged mice as controls. After seven days, the mice were sacrificed by carbon dioxide gas, paired kidneys were removed aseptically and placed in sterile polyethylene bags containing 5 milliters of sterile saline. The kidneys were homogenized in the bags, serially diluted in sterile saline and aliquots spread on the surface of SDA plates. The plates were incubated at 35°C for 48 hours and yeast colonies were enumerated for determination of colony forming units (CFU) per gram of kidneys.

red blood cells = assay: Red blood cell lysis, minimum lytic concentration; format: cell-based, human
Text: A harmful and potentially fatal side reaction of a number of drugs including certain antibiotically active echinocandin compounds is red blood cell lysis. […] The blood cell lysis property may be seen in the determination carried out in the following manner.
The blood employed is a 4 percent suspension of freshly drawn heparinized blood prepared by adding 2 milliliters of blood to 50 milliliters of sterile 5 percent dextrose.
Compound I was solubilized in a small volume of dimethylsulfoxide (DMSO) that was then diluted with distilled water to a final concentration of 5 percent DMSO to obtain a drug suspension of 4.0 mg/ml. A 0.2 milliliter amount of the drug suspension was added to 1.4 milliliters of sterile 5 percent dextrose to obtain the test suspension. A diluent control was also prepared.
A 96-well microliter plate with a well volume of 0.35 ml was used for the assay. Columns 2-12 were filled with 150 µl of sterile 5 percent dextrose. Then, 300 µl of test suspensions were dispensed into the wells in column 1 and serially two-fold diluted in 5 percent dextrose to yield final test concentrations of from 400 to 0.20 µg/ml. […]

Question: What does the source list for `CCC(C)CC(C)CCCCCCCCC(=O)NC1CC(O)C(OCCN)NC(=O)C2C(O)CCN2C(=O)C(C(O)CC(N)=O)NC(=O)C(C(O)C(O)c2ccc(O)cc2)NC(=O)C2CC(O)CN2C(=O)C(C(C)O)NC1=O` (centres unmarked) [Compound I, 1-[4-hydroxy-5-aminoethyloxy-N^2-(10,12-dimethyl-1-oxotetradecyl)-ornithine]-5-(3-hydroxyglutamine)-6-(3-hydroxyproline)-echinocandin B trifluoroacetate]?
Answer: MFC (Candida albicans MY 1055): 0.125 µg/mL; MFC (Candida albicans MY 1028): 0.25 µg/mL; reduction of recoverable Candida CFUs [1]: greater than 99%; red blood cell lysis (red blood cells; at concentrations far beyond what would be used for therapeutic purposes): no red blood cell lysis; Minimum lytic concentration (MLC) (red blood cells; lowest concentration producing complete or partial lysis, 2 hours at room temperature, tested 400 to 0.20 µg/ml): 400 µg/mL
